# pIC50: −log10 of the molar value.
# Tests used:
# NAMPT [1] = biological target: T1, NAMPT (Homo sapiens, UniProt P43490); assay: TR-FRET Binding Assay of NAMPT with PRPP; settings: 2 nM NAMPT, 2 nM probe, 200 µM PRPP and 2.5 mM ATP, equilibrated 16 hours
# Summary of the method: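 Substrates present: PRPP at 200 µM and ATP at 2.5 mM, final, alongside 2 nM enzyme, 2 nM tracer and 1 nM terbium anti-His donor in 2% DMSO. A 16-hour equilibration preceded the time-resolved FRET read, allowing compounds to be enzymatically modified.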
# PC3 cells = assay: NAMPT Cell Proliferation Assay (Cell Titer Glo); assay type: cell-based; settings: Homo sapiens, PC-3, 120 h, incubated 5 days, cell viability
# Summary of the method: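 Viability measured by Cell Titer Glo luminescence after 5-day exposure of attached PC3 cells to compound, dosed as 10-fold serial dilutions ([…]) in RPMI/10% FBS at 37 °C and 5% CO2. Percent inhibition fitted to sigmoidal dose-response curves for IC50.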
# NAMPT [2] = biological target: T1, NAMPT; assay: Time-Resolved Fluorescence Resonance Energy Transfer (TR-FRET) Binding Assay of NAMPT; settings: 6.8 nM NAMPT, 200 nM probe, equilibrated 3 hours, no substrates
# Summary of the method: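 IC50s come from four-parameter logistic fits of control-normalized Em520/Em495 TR-FRET ratios (Ex 337 nm) against compound concentration. Before reading, enzyme, probe, antibody and compound equilibrated for 3 h at room temperature.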
# T1 sequence (P43490 whole entry): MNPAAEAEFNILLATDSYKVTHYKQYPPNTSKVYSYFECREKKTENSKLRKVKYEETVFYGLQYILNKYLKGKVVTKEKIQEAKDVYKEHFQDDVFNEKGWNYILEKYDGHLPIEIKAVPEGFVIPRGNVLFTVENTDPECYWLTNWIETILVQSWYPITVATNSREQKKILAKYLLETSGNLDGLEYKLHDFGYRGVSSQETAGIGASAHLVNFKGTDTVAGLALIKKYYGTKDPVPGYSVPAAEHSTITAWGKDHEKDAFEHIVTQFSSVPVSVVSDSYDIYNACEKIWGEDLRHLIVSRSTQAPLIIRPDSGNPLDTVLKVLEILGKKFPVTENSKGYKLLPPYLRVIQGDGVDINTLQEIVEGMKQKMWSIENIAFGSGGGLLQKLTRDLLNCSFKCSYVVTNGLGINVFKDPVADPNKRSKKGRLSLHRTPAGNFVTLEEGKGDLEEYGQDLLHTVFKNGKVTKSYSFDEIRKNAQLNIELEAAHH
smiles,measurement,setting,value
"O=C(CC1CCCCC1)N1CCC(c2ccc(NC(=O)N3CC(c4cccnc4)C3)cc2)CC1 [Example 178, N-{4-[1-(cyclohexylacetyl)piperidin-4-yl]phenyl}-3-(pyridin-3-yl)azetidine-1-carboxamide]",pIC50,NAMPT [1],9.38
same,pIC50,PC3 cells,7.12
same,pIC50,NAMPT [2],7.86
"O=C(CC(F)(F)F)N1CC=C(c2ccc(NC(=O)N3CC(c4cccnc4)C3)cc2)CC1 [Example 18, 3-(pyridin-3-yl)-N-{4-[1-(3,3,3-trifluoropropanoyl)-1,2,3,6-tetrahydropyridin-4-yl]phenyl}azetidine-1-carboxamide]",pIC50,NAMPT [1],9.53
same,pIC50,PC3 cells,7.18
same,pIC50,NAMPT [2],7.44
"O=C(CN1CCCC1)N1CCC(c2ccc(NC(=O)N3CC(c4cccnc4)C3)cc2)CC1 [Example 194, 3-(pyridin-3-yl)-N-{4-[1-(pyrrolidin-1-ylacetyl)piperidin-4-yl]phenyl}azetidine-1-carboxamide]",pIC50,NAMPT [1],9.23
same,pIC50,PC3 cells,6.16
same,pIC50,NAMPT [2],6.61
"CC(C)CC(=O)N1CCC(c2ccc(NC(=O)N3CC(c4cccnc4)C3)cc2)C1 (stereo not drawn) [Example 294, N-{4-[1-(3-methylbutanoyl)pyrrolidin-3-yl]phenyl}-3-(pyridin-3-yl)azetidine-1-carboxamide]",pIC50,NAMPT [1],9.70
same,pIC50,PC3 cells,7.22
same,pIC50,NAMPT [2],7.35
"CC1(C(=O)N2CCC(c3ccc(NC(=O)N4CC(c5cccnc5)C4)cc3)CC2)CC1 [Example 193, N-(4-{1-[(1-methylcyclopropyl)carbonyl]piperidin-4-yl}phenyl)-3-(pyridin-3-yl)azetidine-1-carboxamide]",pIC50,NAMPT [1],9.61
same,pIC50,PC3 cells,7.86
same,pIC50,NAMPT [2],7.84
"CC1(C(=O)N2CC(Oc3ccc(NC(=O)N4CC(c5cccnc5)C4)cc3)C2)CCCCC1 [Example 152, N-[4-({1-[(1-methylcyclohexyl)carbonyl]azetidin-3-yl}oxy)phenyl]-3-(pyridin-3-yl)azetidine-1-carboxamide]",pIC50,NAMPT [1],9.38
same,pIC50,PC3 cells,8.22
same,pIC50,NAMPT [2],8.29
"Cc1ccsc1C(=O)N1CCC(c2ccc(NC(=O)N3CC(c4cccnc4)C3)cc2)CC1 [Example 186, N-(4-{1-[(3-methylthiophen-2-yl)carbonyl]piperidin-4-yl}phenyl)-3-(pyridin-3-yl)azetidine-1-carboxamide]",pIC50,NAMPT [1],9.46
same,pIC50,PC3 cells,8.46
same,pIC50,NAMPT [2],8.53
"CC(C)(O)C(=O)N1CC[C@H](Oc2ccc(NC(=O)N3CC(c4cccnc4)C3)cc2)C1 [Example 94, N-(4-{[(3S)-1-(2-hydroxy-2-methylpropanoyl)pyrrolidin-3-yl]oxy}phenyl)-3-(pyridin-3-yl)azetidine-1-carboxamide]",pIC50,NAMPT [1],9.67
same,pIC50,PC3 cells,6.22
same,pIC50,NAMPT [2],6.31
"O=C(Nc1ccc(O[C@@H]2CCN(C(=O)C3CC3)C2)cc1)N1CC(c2cccnc2)C1 [Example 85, N-(4-{[(3R)-1-(cyclopropylcarbonyl)pyrrolidin-3-yl]oxy}phenyl)-3-(pyridin-3-yl)azetidine-1-carboxamide]",pIC50,NAMPT [1],9.49
same,pIC50,PC3 cells,7.31
same,pIC50,NAMPT [2],6.93
"CCOCC(=O)N1CC[C@@H](Oc2ccc(NC(=O)N3CC(c4cccnc4)C3)cc2)C1 [Example 328, N-(4-{[(3R)-1-(ethoxyacetyl)pyrrolidin-3-yl]oxy}phenyl)-3-(pyridin-3-yl)azetidine-1-carboxamide]",pIC50,NAMPT [1],9.46
same,pIC50,PC3 cells,7.28
same,pIC50,NAMPT [2],6.80
"O=C(Nc1ccc(OC2CCN(C(=O)c3cccs3)CC2)cc1)N1CC(c2cccnc2)C1 [Example 32, 3-(pyridin-3-yl)-N-(4-{[1-(thiophen-2-ylcarbonyl)piperidin-4-yl]oxy}phenyl)azetidine-1-carboxamide]",pIC50,NAMPT [1],9.68
same,pIC50,PC3 cells,7.23
same,pIC50,NAMPT [2],7.73
"O=C(CN1CCOCC1)N1CCC(c2ccc(NC(=O)N3CC(c4cccnc4)C3)cc2)CC1 [Example 187, N-{4-[1-(morpholin-4-ylacetyl)piperidin-4-yl]phenyl}-3-(pyridin-3-yl)azetidine-1-carboxamide]",pIC50,NAMPT [1],9.53
same,pIC50,PC3 cells,7.06
same,pIC50,NAMPT [2],7.41
"CC(C)(O)C(=O)N1CC=C(c2ccc(NC(=O)N3CC(c4cccnc4)C3)cc2)CC1 [Example 12, N-{4-[1-(2-hydroxy-2-methylpropanoyl)-1,2,3,6-tetrahydropyridin-4-yl]phenyl}-3-(pyridin-3-yl)azetidine-1-carboxamide]",pIC50,NAMPT [1],9.37
same,pIC50,PC3 cells,8.00
same,pIC50,NAMPT [2],7.49
"O=C(Nc1ccc(C2CCN(C(=O)c3cccs3)CC2)cc1)N1CC(c2cccnc2)C1 [Example 188, 3-(pyridin-3-yl)-N-{4-[1-(thiophen-2-ylcarbonyl)piperidin-4-yl]phenyl}azetidine-1-carboxamide]",pIC50,NAMPT [1],9.73
same,pIC50,PC3 cells,8.65
same,pIC50,NAMPT [2],8.68
"COCCOCC(=O)N1CC=C(c2ccc(NC(=O)N3CC(c4cccnc4)C3)cc2)CC1 [Example 23, N-(4-{1-[(2-methoxyethoxy)acetyl]-1,2,3,6-tetrahydropyridin-4-yl}phenyl)-3-(pyridin-3-yl)azetidine-1-carboxamide]",pIC50,NAMPT [1],9.26
same,pIC50,PC3 cells,6.71
same,pIC50,NAMPT [2],7.01
"CC(C)CCC(=O)N1CCC(c2ccc(NC(=O)N3CC(c4cccnc4)C3)cc2)CC1 [Example 166, N-{4-[1-(4-methylpentanoyl)piperidin-4-yl]phenyl}-3-(pyridin-3-yl)azetidine-1-carboxamide]",pIC50,NAMPT [1],9.47
same,pIC50,PC3 cells,7.18
same,pIC50,NAMPT [2],7.76
"O=C(CC1CCOCC1)N1CC[C@H](Oc2ccc(NC(=O)N3CC(c4cccnc4)C3)cc2)C1 [Example 88, 3-(pyridin-3-yl)-N-(4-{[(3S)-1-(tetrahydro-2H-pyran-4-ylacetyl)pyrrolidin-3-yl]oxy}phenyl)azetidine-1-carboxamide]",pIC50,NAMPT [1],9.24
same,pIC50,PC3 cells,6.96
same,pIC50,NAMPT [2],6.57
"CC(C)(C)CC(=O)N1CC=C(c2ccc(NC(=O)N3CC(c4cccnc4)C3)cc2)CC1 [Example 17, N-{4-[1-(3,3-dimethylbutanoyl)-1,2,3,6-tetrahydropyridin-4-yl]phenyl}-3-(pyridin-3-yl)azetidine-1-carboxamide]",pIC50,NAMPT [1],9.25
same,pIC50,PC3 cells,7.43
same,pIC50,NAMPT [2],7.77
"CCC(C)CC(=O)N1CC(c2ccc(NC(=O)N3CC(c4cccnc4)C3)cc2)C1 (stereo not drawn) [Example 202, N-{4-[1-(3-methylpentanoyl)azetidin-3-yl]phenyl}-3-(pyridin-3-yl)azetidine-1-carboxamide]",pIC50,NAMPT [1],9.49
same,pIC50,PC3 cells,7.18
same,pIC50,NAMPT [2],7.29
"CN(C)CCC(=O)N1CC(Oc2ccc(NC(=O)N3CC(c4cccnc4)C3)cc2)C1 [Example 150, N-(4-{[1-(N,N-dimethyl-beta-alanyl)azetidin-3-yl]oxy}phenyl)-3-(pyridin-3-yl)azetidine-1-carboxamide]",pIC50,NAMPT [1],8.55
same,pIC50,PC3 cells,5.98
same,pIC50,NAMPT [2],6.36
"O=C(CCN1CCCCC1)N1CCC(c2ccc(NC(=O)N3CC(c4cccnc4)C3)cc2)C1 (stereo not drawn) [Example 287, N-(4-{1-[3-(piperidin-1-yl)propanoyl]pyrrolidin-3-yl}phenyl)-3-(pyridin-3-yl)azetidine-1-carboxamide]",pIC50,NAMPT [1],9.72
same,pIC50,PC3 cells,7.43
same,pIC50,NAMPT [2],7.52
"O=C(Nc1ccc(C2=CCN(C(=O)[C@@H]3CCCO3)CC2)cc1)N1CC(c2cccnc2)C1 [Example 11, 3-(pyridine-3-yl)-N-(4-{1-[(2S)-tetrahydrofuran-2-ylcarbonyl]-1,2,3,6-tetrahydropyridin-4-yl}phenyl)azetidine-1-carboxamide]",pIC50,NAMPT [1],9.49
same,pIC50,PC3 cells,8.03
same,pIC50,NAMPT [2],7.80
"CC1CC1C(=O)N1CCC(Oc2ccc(NC(=O)N3CC(c4cccnc4)C3)cc2)CC1 (stereo not drawn) [Example 35, N-[4-({1-[(2-methylcyclopropyl)carbonyl]piperidin-4-yl}oxy)phenyl]-3-(pyridin-3-yl)azetidine-1-carboxamide]",pIC50,NAMPT [1],9.31
same,pIC50,PC3 cells,7.04
same,pIC50,NAMPT [2],7.05
"CC(C)CC(=O)N1CCC(c2ccc(NC(=O)N3CC(c4cccnc4)C3)cc2)CC1 [Example 174, N-{4-[1-(3-methylbutanoyl)piperidin-4-yl]phenyl}-3-(pyridin-3-yl)azetidine-1-carboxamide]",pIC50,NAMPT [1],9.49
same,pIC50,PC3 cells,7.61
same,pIC50,NAMPT [2],7.68
"COCC(=O)N1CCC(c2ccc(NC(=O)N3CC(c4cccnc4)C3)cc2)CC1 [Example 184, N-{4-[1-(methoxyacetyl)piperidin-4-yl]phenyl}-3-(pyridin-3-yl)azetidine-1-carboxamide]",pIC50,NAMPT [1],9.52
same,pIC50,PC3 cells,7.21
same,pIC50,NAMPT [2],7.73
"Cc1ccsc1C(=O)N1CC[C@@H](Oc2ccc(NC(=O)N3CC(c4cccnc4)C3)cc2)C1 [Example 310, N-[4-({(3R)-1-[(3-methylthiophen-2-yl)carbonyl]pyrrolidin-3-yl]oxy}phenyl)-3-(pyridin-3-yl)azetidine-1-carboxamide]",pIC50,NAMPT [1],9.53
same,pIC50,PC3 cells,8.56
same,pIC50,NAMPT [2],8.34
"CCC(C)CC(=O)N1CC(Oc2ccc(NC(=O)N3CC(c4cccnc4)C3)cc2)C1 (stereo not drawn) [Example 121, N-(4-{[1-(3-methylpentanoyl)azetidin-3-yl]oxy}phenyl)-3-(pyridin-3-yl)azetidine-1-carboxamide]",pIC50,NAMPT [1],9.30
same,pIC50,PC3 cells,8.11
same,pIC50,NAMPT [2],7.73
"O=C(CCC(F)(F)F)N1CC[C@@H](Oc2ccc(NC(=O)N3CC(c4cccnc4)C3)cc2)C1 [Example 311, 3-(pyridin-3-yl)-N-(4-{[(3R)-1-(4,4,4-trifluorobutanoyl)pyrrolidin-3-yl]oxy}phenyl)azetidine-1-carboxamide]",pIC50,NAMPT [1],9.23
same,pIC50,PC3 cells,7.33
same,pIC50,NAMPT [2],6.84

# Source: patent US9296723B2, “NAMPT inhibitors” (AbbVie Inc., priority 2012, dated 2016)
